Where no end group is shown, it is not given here.

The test concerns the target C10-11 mAb. The test is described as follows: Competitive ELISA with AChE-labeled C10 peptide on C10-11 mAb. Further details: species or system mouse. The settings on record: read-out: Apparent dissociation constant (Kapp) of C10-11 mAb; concentration of competitor inducing 50% inhibition of binding of AChE-labeled C10 peptide (0.5 EU/mL); mAb 1 ng/mL, overnight at 4 °C; NB means no binding. As for the experimental part:
The apparent affinity of anti-C10 peptide mAbs for different variants of C10 peptides and recombinant OspC was measured by competitive ELISA, using goat anti-mouse antibodies (Jackson ImmunoResearch, Cambridgeshire, United Kingdom) coated on the wells of a microtiter plate. A mix of anti-C10 peptide mAb (1 ng/mL), AChE-labeled C10 peptide (0.5 EU/mL) and different concentrations of competitor peptide or recombinant OspC were reacted overnight in the wells at 4 °C.
On to PIVAESPKKP [compound 10], for which the Kd was found to be 100 nM. As to PVMAESPKKP [compound 9], the Kd came out at 125 nM. For PVVAEAPKKP [compound 2], the Kd turned out to be 146 nM. Take “PVVAESPKKP [compound 1, reference compound]”: the Kd is 33 nM. For PVVAESPKKT [compound 3], the Kd is 60 nM. The result for PVVAESQKKP [compound 7] reads 170 nM. The result for PVVAETPKKP [compound 5] reads 179 nM.

(Values after publication PMC8405660, “Detection of Borrelia burgdorferi antigens in tissues and plasma during early infection in a mouse model” (Scientific Reports, 2021).)
